Molecules are shown by their SMILES.

The values below come from patent US20040106626A1, “6-Membered unsaturated heterocyclic compounds useful for selective inhibition of the coagulation cascade” (Pharmacia Corporation, priority 2001, published 2004).

What all share (type): biochemical
Experiment [1] deals with T1, recombinant soluble tissue factor and recombinant human factor VIIa (TF-VIIa) (Homo sapiens, UniProt P08709).
T1 construct: conversion of coagulation factor VII to VIIa by factor Xa; purchased American Diagnostica, Greenwich CT; host or cells: soluble TF made in house in E. coli
T1 sequence (P08709 213-466 limits assumed): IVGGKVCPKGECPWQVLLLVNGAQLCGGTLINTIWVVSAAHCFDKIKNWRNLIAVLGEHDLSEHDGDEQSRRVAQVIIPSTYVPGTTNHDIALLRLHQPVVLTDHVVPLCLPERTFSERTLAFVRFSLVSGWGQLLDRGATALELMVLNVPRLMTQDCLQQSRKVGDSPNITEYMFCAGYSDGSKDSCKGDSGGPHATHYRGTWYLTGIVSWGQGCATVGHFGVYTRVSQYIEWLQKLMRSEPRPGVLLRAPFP
T1 sequence (P08709 61-212 limits assumed): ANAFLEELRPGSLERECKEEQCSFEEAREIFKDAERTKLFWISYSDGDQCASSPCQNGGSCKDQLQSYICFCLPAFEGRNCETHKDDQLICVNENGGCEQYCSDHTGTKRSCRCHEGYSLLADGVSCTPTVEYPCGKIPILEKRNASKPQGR
T1 sequence (P13726 33-251 partner limits assumed): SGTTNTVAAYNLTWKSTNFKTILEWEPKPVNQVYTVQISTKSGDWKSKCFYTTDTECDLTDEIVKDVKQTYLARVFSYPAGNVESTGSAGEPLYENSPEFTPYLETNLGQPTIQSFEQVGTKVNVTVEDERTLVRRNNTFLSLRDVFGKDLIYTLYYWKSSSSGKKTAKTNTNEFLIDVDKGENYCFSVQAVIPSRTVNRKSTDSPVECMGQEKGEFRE
Nature of the experiment: TF-VIIa assay (chromogenic substrate hydrolysis). The settings on record: reported only as less than or greater than 0.1 uM. The method, boiled down: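 Chromogenic read at OD405, compared with control for percent inhibition. Substrate N-methylsulfonyl-D-phe-gly-arg-p-nitroaniline at 0.4 mM is cleaved by recombinant human VIIa (2 nM) complexed with soluble TF (100 nM). Buffer: pH 8.0 Tris-HCl 50 mM, CaCl2 5 mM, NaCl 100 mM, BSA 0.1%.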

For another experiment, the target named is T2, Human factor Xa (Homo sapiens, UniProt P00742).
T2 construct: purchased Enzyme Research Laboratories, South Bend Ind
T2 sequence (P00742 235-488 limits assumed): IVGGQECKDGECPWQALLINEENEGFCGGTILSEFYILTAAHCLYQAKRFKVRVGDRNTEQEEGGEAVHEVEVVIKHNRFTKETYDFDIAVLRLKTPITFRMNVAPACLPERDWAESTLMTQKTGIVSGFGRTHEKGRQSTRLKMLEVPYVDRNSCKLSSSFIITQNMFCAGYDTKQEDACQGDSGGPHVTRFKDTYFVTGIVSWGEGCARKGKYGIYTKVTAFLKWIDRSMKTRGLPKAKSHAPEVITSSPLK
T2 sequence (P00742 41-179 limits assumed): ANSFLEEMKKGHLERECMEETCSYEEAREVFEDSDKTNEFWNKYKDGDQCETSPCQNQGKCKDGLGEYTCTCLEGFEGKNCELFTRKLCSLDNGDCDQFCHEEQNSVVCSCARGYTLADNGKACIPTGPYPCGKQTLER
Put plainly: Xa assay (chromogenic substrate S-2765). The settings on record: reported only as less than or greater than 30 uM; read-out: Factor Xa (II) IC50. In outline:
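Chromogenic readout: S-2765 hydrolysis (0.15 mM) by 0.3 nM human FXa was monitored at 405 nm after 60 min at room temperature, with a time-zero background read. Buffer: 50 mM Tris-HCl, pH 8.0, 100 mM NaCl, 0.1% BSA. Inhibition is relative to buffer-only controls.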

Another experiment has as its target T3, Human thrombin (Homo sapiens, UniProt P00734).
T3 construct: converts prothrombin (II) to thrombin (IIa); purchased Calbiochem, La Jolla, Calif
Nature of the experiment: Thrombin assay (chromogenic substrate). Conditions: reported only as less than or greater than 30 uM; read-out: Thrombin (II) IC50. The method, boiled down:
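Percent inhibition derived by comparing OD405 nm of compound-treated and control samples. Thrombin cleavage of a p-nitroanilide chromogenic substrate provides the signal.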

The test system of experiment [2] is Normal human pooled plasma. Put plainly: Prothrombin time (PT) clotting assay. Conditions: concentration at which prothrombin time is prolonged by 2x normal, reported as less than or greater than 50 uM. On the procedure:
The prothrombin time (PT) assay is a clotting assay that is used to determine deficiencies of clotting factor activity in the extrinsic pathway. The assay measures time to clotting after the addition of thromboplastin (human tissue factor). Normal human pooled plasma is incubated with 100 uM compound or saline in a coagulation machine. Thromboplastin is added and time to clotting is measured. Compounds with greater than 3×normal PT of 11.0 seconds are further analyzed by concentration response to determine at what concentration the prothrombin time is prolonged by 2×normal.

For the molecule `COC(=O)c1cc(N)cc(-c2cnc(NC(C)C)c(=O)n2CC(=O)NCc2ccc(C(=N)N)c(O)c2)c1` [Example 77], the IC50 in experiment [1] was over 0.1 µM; at Human factor Xa it was over 30 µM; on Human thrombin it was over 30 µM. Moreover, in experiment [2], the “PT (Prothrombin time) 2xPT” value is under 50.0 µM.

Consider `CC(C)Nc1ncc(-c2cc(N)cc(NC(=O)OC(C)(C)C)c2)n(CC(=O)NCc2ccc(C(=N)N)c(O)c2)c1=O` [Example 78], for which the IC50 in experiment [1] is over 0.1 µM; at Human factor Xa it was over 30 µM; on Human thrombin it was over 30 µM. Further, in experiment [2], the “PT (Prothrombin time) 2xPT” value is under 50.0 µM.

Consider `CC(C)Nc1ncc(-c2cc(N)cc(N)c2)n(CC(=O)NCc2ccc(C(=N)N)c(O)c2)c1=O` [Example 79], for which the IC50 was over 0.1 µM in experiment [1], over 30 µM at Human factor Xa and over 30 µM on Human thrombin. Further, the “PT (Prothrombin time) 2xPT” value in experiment [2] is under 50.0 µM.

Consider `CC(C)Nc1ncc(-c2cc(N)cc(/C=C/Cc3ccccc3)c2)n(CC(=O)NCc2ccc(C(=N)N)cc2)c1=O` [Example 80, N-{4-[amino(imino)methyl]benzyl}-2-[6-{3-amino-5-[(1E)-3-phenylprop-1-enyl]phenyl}-3-(isopropylamino)-2-oxopyrazin-1 (2H)-yl]acetamide], for which the results for the IC50 (in experiment [1]; on Human factor Xa; at Human thrombin) were under 0.1 µM, over 30 µM and over 30 µM, respectively. Also, the “PT (Prothrombin time) 2xPT” value in experiment [2] was over 50.0 µM.

As for `CC(C)Nc1ncc(-c2cc(N)cc(C(=O)N[C@H](C)C3CCCCC3)c2)n(CC(=O)NCc2ccc(C(=N)N)cc2)c1=O.O=C(O)C(F)(F)F` [Example 81], the results for the IC50 (in experiment [1]; on Human factor Xa; at Human thrombin) were under 0.1 µM, over 30 µM and under 30 µM, respectively. Moreover, the “PT (Prothrombin time) 2xPT” value in experiment [2] is under 50.0 µM.

For `CC(C)Nc1ncc(-c2cc(N)cc(C(=O)N[C@@H](C)C3CCCCC3)c2)n(CC(=O)NCc2ccc(C(=N)N)cc2)c1=O.O=C(O)C(F)(F)F` [Example 82], the figures for the IC50 (in experiment [1]; at Human factor Xa; on Human thrombin) were under 0.1 µM, over 30 µM and under 30 µM, respectively. Further, the “PT (Prothrombin time) 2xPT” value in experiment [2] is under 50.0 µM.

With `CC(C)Nc1ncc(-c2cc(N)cc(C(=O)N[C@@H](C(=O)O)c3ccccc3)c2)n(CC(=O)NCc2ccc(C(=N)N)cc2)c1=O` [Example 83], the IC50 is under 0.1 µM in experiment [1], over 30 µM on Human factor Xa and over 30 µM at Human thrombin. The “PT (Prothrombin time) 2xPT” value in experiment [2] is under 50.0 µM.

As for `CC(C)Nc1ncc(-c2cc(N)cc(C(=O)N[C@H](C(=O)O)c3ccccc3)c2)n(CC(=O)NCc2ccc(C(=N)N)cc2)c1=O` [Example 84], the IC50 in experiment [1] was under 0.1 µM; at Human factor Xa, over 30 µM; on Human thrombin, over 30 µM. The “PT (Prothrombin time) 2xPT” value in experiment [2] is under 50.0 µM.

In the case of `CCC(C)[C@H](NC(=O)c1cc(N)cc(-c2cnc(NC(C)C)c(=O)n2CC(=O)NCc2ccc(C(=N)N)cc2)c1)C(=O)O` (stereo partly drawn) [Example 85], the IC50 is under 0.1 µM in experiment [1], over 30 µM on Human factor Xa and over 30 µM at Human thrombin. For the same molecule, in experiment [2], the “PT (Prothrombin time) 2xPT” value is under 50.0 µM.

As for `COC(=O)[C@H](NC(=O)c1cc(N)cc(-c2cnc(NC(C)C)c(=O)n2CC(=O)NCc2ccc(C(=N)N)cc2)c1)c1ccccc1` [Example 86], the IC50 in experiment [1] was under 0.1 µM; on Human factor Xa, over 30 µM; at Human thrombin, under 30 µM. Also, the “PT (Prothrombin time) 2xPT” value in experiment [2] is under 50.0 µM.

For `COC(=O)[C@@H](NC(=O)c1cc(N)cc(-c2cnc(NC(C)C)c(=O)n2CC(=O)NCc2ccc(C(=N)N)cc2)c1)c1ccccc1` [Example 87], the values for the IC50 (in experiment [1]; at Human factor Xa; at Human thrombin) were under 0.1 µM, over 30 µM and under 30 µM, respectively. Also, the “PT (Prothrombin time) 2xPT” value in experiment [2] is under 50.0 µM.

In the case of `CC(C)Nc1ncc(-c2cc(N)cc(NS(=O)(=O)c3ccc(OC(F)(F)F)cc3)c2)n(CC(=O)NCc2ccc(C(=N)N)cc2)c1=O` [Example 88], the half-maximal inhibitory concentration (IC50) in experiment [1] was over 0.1 µM; at Human factor Xa, over 30 µM; on Human thrombin, over 30 µM. The “PT (Prothrombin time) 2xPT” value in experiment [2] is under 50.0 µM.

Usually IC50 stands for the point on the concentration scale where inhibition reaches its midpoint.
